Measured values published in article PMC10525924, “Engineering and Purification of Microcin C7 Variants Resistant to Trypsin and Analysis of Their Biological Activity” (Antibiotics, 2023).
≈ marks a conversion by molar mass, not a printed value. Where a SMILES comes first, the peptide text is derived from it. Where no end group is shown, it is not given here.

Columns and labels:
E. coli K88 = experiment: microbe, parasite or virus in culture; assay type: cell-based; details: agar diffusion; for Diameters of the inhibition zones, Trypsin-Untreated Group, K88: 200 μL fermentation supernatant, 1 × 10^5 CFU/mL, 4 °C 1 h then 37 °C 24 h, chloramphenicol 100 μL of 0.25 μg/mL; for Diameters of the inhibition zones, Trypsin-Untreated Group, K88 / Diameters of the inhibition zones, Trypsin-Treated Group, K88: dash = no zone; for antimicrobial activity after trypsin treatment, K88 / Diameters of the inhibition zones, Trypsin-Treated Group, K88: supernatant treated with trypsin 50 μg/mL, 37 °C, 3 h; for Diameters of the inhibition zones, Trypsin-Treated Group, K88: pH 6.8, 37 °C 24 h
Experimental: (§1) The pH was adjusted to 6.8.
(§2) The fermentation supernatants and pure products were used to characterize the bacteriostatic effects of McC variants by the agar diffusion and microdilution methods. Yej^+rimL^− and E. coli K88 indicator bacteria were applied. The serotype of E. coli K88 was O149:K91, K88ac, a clinically isolated strain, and provided by the College of Veterinary Medicine, China Agricultural University. The indicated bacteria were diluted to 1 × 10^5 CFU/mL and added to plate medium cooled to 50 °C. Two hundred microliters of supernatants were added to each dish, and diffusion was performed at 4 °C for 1 h. After incubation at 37 °C for 24 h, the diameters of the inhibition zones were determined. One hundred microliters of 0.25 μg/mL chloramphenicol was used as a control. The MICs of the pure McC variants were determined by microdilution in a sterilized 96-well microplate. The McC variants were serially diluted 2 times in 96-well microplates with LB medium. The concentrations of the McC variants ranged from 0.125 to 100 µg/mL. Each well was inoculated with 10 μL of overnight bacterial culture at a concentration of 1.0 × 10^5 CFU/mL and incubated at 37 °C for 24 h. A microplate reader was used to automatically observe changes in absorbance at 600 nm in order to monitor bacterial growth. A positive control group (including inoculated medium) and a negative control group (with medium only) were included. The MIC was determined as the lowest concentration of McC variant that inhibited bacterial growth (preventing an increase in the absorbance reading). All tests were performed in triplicate.

Yej^+rimL^− strain [1] = experiment: organism not typed; assay type: cell-based; details: agar diffusion; for Diameters of the inhibition zones, Trypsin-Untreated Group, Yej^+rimL^−: 200 μL fermentation supernatant, 1 × 10^5 CFU/mL, 4 °C 1 h then 37 °C 24 h, chloramphenicol 100 μL of 0.25 μg/mL; for Diameters of the inhibition zones, Trypsin-Untreated Group, Yej^+rimL^− / Diameters of the inhibition zones, Trypsin-Treated Group, Yej^+rimL^−: dash = no zone; for bacteriostatic activity after trypsin treatment, Yej^+rimL^− / Diameters of the inhibition zones, Trypsin-Treated Group, Yej^+rimL^−: supernatant treated with trypsin 50 μg/mL, 37 °C, 3 h; for Diameters of the inhibition zones, Trypsin-Treated Group, Yej^+rimL^−: pH 6.8, 37 °C 24 h
Description: To analyze the antimicrobial ability of the variants, we measured the inhibition zones of all 21 variants by the agar diffusion method. The peptide moiety of McC was recognized by a YejABEf-peptide transporter. The rimL contains an acetyltransferase domain homologous to MccE which can detoxify and provide resistance to McC [17]. The overexpression of the YejABEF gene cluster and rimL gene knockout made the strain hypersensitive to McC. Therefore, the Yej^+rimL^− strain was selected as the sensitive indicator bacterial strain.
as §1, §2

[2] = HPLC retention time according to hydrophobicity; assay type: physicochemical; details: chromatographic, C18 5 μm 9.4 × 250 mm; A 0.1% trichloroacetic acid, B 0.1% trichloroacetic acid with 90% acetonitrile; linear 5% B to 50% B; 1 mL/min; 35 °C; 280 nm; varies according to hydrophobicity
Experimental: To find the separation peaks of the variants, wildtype McC and blank control fermentation broth samples were tested by HPLC. The separation peaks with obvious differences (those with retention times of 11 min and 17 min) were purified and the antimicrobial activity was determined. […] Therefore, the molecular weight was further analyzed by mass spectrometry, and the separation peak at approximately 17 min was confirmed to be that of the desired purified McC. Since the mutations in this study involved only one amino acid and had few effects on the properties of the peptides, we predicted that the separation peaks of the variants should fluctuate around approximately 17 min according to their hydrophobicity. […] The purity of the purified variants was determined by HPLC to be greater than 80% (Table 3).
The lyophilized supernatants were dissolved in deionized water, filtered through 0.22 μm aqueous-phase filter membranes, and purified by high-performance liquid chromatography (HPLC, Agilent Technologies Inc., Palo Alto, CA, USA) with C18 column (5 μm 9.4 × 250 mm, Agilent Technologies Inc., Palo Alto, CA, USA). The mobile phase was composed of 0.1% (v/v) trichloroacetic acid (solvent A) and 0.1% (v/v) trichloroacetic acid with 90% (v/v) acetonitrile (solvent B). A linear gradient from 95% A/5% B to 50% A/50% B was used with a flow rate of 1 mL/min, a sample volume of 10 μL, a column temperature of 35 °C, and a detection wavelength of 280 nm. Electrospray ionization mass spectrometry (ESI-MS) was used to compare the McC variant masses with the expected masses. The relationships between the relative abundances and the mass-to-charge ratios (m/z) of the ions were determined to confirm the identities of the experimentally produced McC variants.

[3] = Remaining amount by RP-HPLC after chymotrypsin treatment; assay type: in vitro ADME; details: isolated enzyme chymotrypsin; chymotrypsin treated for 3 h; read-out RP-HPLC; Table S2
Experimental: (§3) To test whether the variants were tolerant to trypsin or other digestive enzymes, the amount of the remaining McC and its analogues remaining was determined by RP-HPLC after trypsin, pepsin, and chymotrypsin treated for 3 h (Table S2), and the inhibition zones of trypsin-treated variants were tested using the same method (Table 2).

[4] = Remaining amount by RP-HPLC after pepsin treatment; assay type: in vitro ADME; details: isolated enzyme pepsin; pepsin treated for 3 h; read-out RP-HPLC; Table S2
Experimental: as §3

Yej^+rimL^− strain [5] = assay type: cell-based; details: HPLC-purified variants; microdilution in LB, 96-well; 0.125 to 100 µg/mL; 1.0 × 10^5 CFU/mL; 37 °C 24 h; absorbance 600 nm; triplicate
Experimental: To accurately characterize the bacteriostatic abilities of the variants, the MICs of the pure McC variants toward the McCsensitive strain Yej^+rimL^− were determined. The MICs of all variants were lower than that of wild-type McC. From smallest to largest MIC, the above five variants were in the following order: R2A, R2T, R2Q, R2S, and R2H. […] Although the diameter of the inhibitory zone of R2M was smaller than those of the above five variants, the bacteriostatic ability of R2M was second only to R2T/R2Q, and the MIC was 50 μg/mL.
as §2

indicator bacteria = details: second to seventh codons of mccA replaced; cited from earlier work
Description: The heptapeptide precursor of McC, f-MRTGNAN, is encoded by the first gene in the mcc gene clusters, mccA [11]. Considering its protein nature, it is suitable for gene-based peptide engineering. Kazakov et al. first applied site-directed mutagenesis on the mccA gene, systematically replacing the second to seventh codons of mccA encoding 19 standard amino acids for a total of 114 mutations.

Compound | Diameters of the inhibition zones, Trypsin-Untreated Group, K88 (E. coli K88) [mm] | Diameters of the inhibition zones, Trypsin-Untreated Group, Yej^+rimL^− (Yej^+rimL^− strain [1]) [mm] | Retention Time [2] [min] | remaining at 3 h [3] [%] | remaining at 3 h [4] [%] | MIC (Yej^+rimL^− strain [5]) [mg/L] | antimicrobial activity of mccA substitution variants (indicator bacteria) | antimicrobial activity after trypsin treatment, K88 (E. coli K88) | Diameters of the inhibition zones, Trypsin-Treated Group, K88 (E. coli K88) [mm] | bacteriostatic activity after trypsin treatment, Yej^+rimL^− (Yej^+rimL^− strain [1]) | Diameters of the inhibition zones, Trypsin-Treated Group, Yej^+rimL^− (Yej^+rimL^− strain [1]) [mm]
CSCC[C@H](NC=O)C(=O)N[C@@H](CCCNC(=N)N)C(=O)N[C@H](C(=O)NCC(=O)N[C@@H](CC(N)=O)C(=O)N[C@@H](C)C(=O)N[C@@H](CC(=O)O)C(=O)NP(=O)(OCCCN)OC[C@H]1O[C@@H](n2cnc3c(N)ncnc32)[C@H](O)[C@@H]1O)[C@@H](C)O (some centres unmarked) [McC, Microcin C7] (HELM PEPTIDE1{[O=C[*:2]].M.R.T.G.N.A.[NCCCOP(=O)(NC(=O)[C@H](CC(=O)O)N[*:1])OC[C@H]1O[C@@H](n2cnc3c(N)ncnc32)[C@H](O)[C@@H]1O]}$$$$V2.0) | 20.25 | 29.12 | 17.198 | 41.7 ± 1.07 | 89.3 ± 1.16 | 1.56 (≈ 1.33 µM) | – | – | – | – | –
CSCC[C@H](NC=O)C(=O)N[C@@H](C)C(=O)N[C@H](C(=O)NCC(=O)N[C@@H](CC(N)=O)C(=O)N[C@@H](C)C(=O)N[C@@H](CC(=O)O)C(=O)NP(=O)(OCCCN)OC[C@H]1O[C@@H](n2cnc3c(N)ncnc32)[C@H](O)[C@@H]1O)[C@@H](C)O (some centres unmarked) [R2A] (HELM PEPTIDE1{[O=C[*:2]].M.A.T.G.N.A.[NCCCOP(=O)(NC(=O)[C@H](CC(=O)O)N[*:1])OC[C@H]1O[C@@H](n2cnc3c(N)ncnc32)[C@H](O)[C@@H]1O]}$$$$V2.0) | 16.53 | 21.82 | 17.167 | 42.2 ± 0.86 | 92.2 ± 1.04 | 12.5 (≈ 11.4 µM) | bacteriostatic | retained their antimicrobial activity | 11.96 | exhibited antibacterial effects | 19.07
CC[C@H](C)[C@H](NC(=O)[C@H](CCSC)NC=O)C(=O)N[C@H](C(=O)NCC(=O)N[C@@H](CC(N)=O)C(=O)N[C@@H](C)C(=O)N[C@@H](CC(=O)O)C(=O)NP(=O)(OCCCN)OC[C@H]1O[C@@H](n2cnc3c(N)ncnc32)[C@H](O)[C@@H]1O)[C@@H](C)O (some centres unmarked) [R2I] (HELM PEPTIDE1{[O=C[*:2]].M.I.T.G.N.A.[NCCCOP(=O)(NC(=O)[C@H](CC(=O)O)N[*:1])OC[C@H]1O[C@@H](n2cnc3c(N)ncnc32)[C@H](O)[C@@H]1O]}$$$$V2.0) | 10.18 | 18.36 | 18.166 | 41.3 ± 0.55 | 91.72 ± 0.87 | 100 (≈ 88.2 µM) | – | – | – | exhibited antibacterial effects | 15.67
CSCC[C@H](NC=O)C(=O)N[C@@H](CCC(N)=O)C(=O)N[C@H](C(=O)NCC(=O)N[C@@H](CC(N)=O)C(=O)N[C@@H](C)C(=O)N[C@@H](CC(=O)O)C(=O)NP(=O)(OCCCN)OC[C@H]1O[C@@H](n2cnc3c(N)ncnc32)[C@H](O)[C@@H]1O)[C@@H](C)O (some centres unmarked) [R2Q] (HELM PEPTIDE1{[O=C[*:2]].M.Q.T.G.N.A.[NCCCOP(=O)(NC(=O)[C@H](CC(=O)O)N[*:1])OC[C@H]1O[C@@H](n2cnc3c(N)ncnc32)[C@H](O)[C@@H]1O]}$$$$V2.0) | 21.67 | 19.45 | 16.910 | 49.6 ± 1.19 | 87.6 ± 1.23 | 25 (≈ 21.8 µM) | – | retained their antimicrobial activity | 14.56 | exhibited antibacterial effects | 19.38
CSCC[C@H](NC=O)C(=O)N[C@H](C(=O)N[C@H](C(=O)NCC(=O)N[C@@H](CC(N)=O)C(=O)N[C@@H](C)C(=O)N[C@@H](CC(=O)O)C(=O)NP(=O)(OCCCN)OC[C@H]1O[C@@H](n2cnc3c(N)ncnc32)[C@H](O)[C@@H]1O)[C@@H](C)O)[C@@H](C)O (some centres unmarked) [R2T] (HELM PEPTIDE1{[O=C[*:2]].M.T.T.G.N.A.[NCCCOP(=O)(NC(=O)[C@H](CC(=O)O)N[*:1])OC[C@H]1O[C@@H](n2cnc3c(N)ncnc32)[C@H](O)[C@@H]1O]}$$$$V2.0) | 15.27 | 21.74 | 17.418 | 46.7 ± 0.66 | 86.76 ± 0.77 | 25 (≈ 22.3 µM) | – | retained their antimicrobial activity | 11.68 | exhibited antibacterial effects | 17.23
A6F: McC substitution variant of Kazakov et al., site-directed mutagenesis of mccA (MRTGNFN; ends and bridges not checked; UniProt Q47505 1-7, looked up, variant A6F) [reference compound] | – | – | – | – | – | – | loss of antimicrobial activity | – | – | – | –
A6M: McC substitution variant of Kazakov et al., site-directed mutagenesis of mccA (MRTGNMN; ends and bridges not checked; UniProt Q47505 1-7, looked up, variant A6M) [reference compound] | – | – | – | – | – | – | loss of antimicrobial activity | – | – | – | –
